In US5079241A, “Cephalosporin derivatives and pharmaceutical compositions in which they are present” (Sanofi, priority 1987, dated 1992):
Values after ≈ are worked out from the molar mass of the structure shown. Read-outs that look alike come from different tables or passages of the source.

What was measured:
[1] = pharmacokinetic behavior in baboons, 20 mg/kg (Tables 4 and 6); type: in vivo; details: baboon; for Cmax: read-out: Max plasma concentration; for AUC(0-t) at 6 h: trapezium method; for concentration at 6 h / concentration at 10 min / concentration at 20 min / concentration at 0.5 h / concentration at 0.75 h / concentration at 1 h / concentration at 1.5 h / concentration at 2 h / concentration at 3 h / concentration at 4 h / concentration at 5 h / concentration at 5.5 h / dose excreted at 6 h: 20 mg/kg; for concentration at 0.5 h: 30 minutes; for concentration at 0.75 h: 45 minutes; for concentration at 1 h: 60 minutes; for concentration at 1.5 h: 90 minutes; for concentration at 2 h: 120 minutes; for concentration at 3 h: 180 minutes; for concentration at 4 h: 240 minutes; for concentration at 5 h: 300 minutes; for concentration at 5.5 h: 330 minutes; for dose excreted at 6 h: urine, 6 h (Table 6), read-out: Excretion in the urine
Description: Furthermore, the pharmacokinetic behavior of the products according to the invention was studied in baboons after administration at a dose of 20 mg/kg by intramuscular injection or intravenous injection.
Blood samples taken at various times after administration are used to determine the plasma concentration of the product studied by microbiological assay.
It is thus possible to construct the curve showing the plasma concentration as a function of time, and to determine different pharmacokinetic parameters of the compound studied:
the elimination half-life (t1/2 β) is calculated by the formula [formula] in which β represents the elimination gradient or slope;
the area under the curve (AUC) is determined by the trapezium method.
The plasma concentrations obtained with various products of the invention are collated in Tables 4 and 5. They are expressed in μg/ml.

[2] = protein binding by comparing two standard scales in baboon plasma and phosphate buffer; type: in vitro ADME; details: baboon plasma vs phosphate buffer (pH 7, 0.03M)
From the text: Furthermore, the protein binding is obtained by comparing two standard scales, one being prepared in baboon plasma and the other in phosphate buffer (pH 7, 0.03M).

[3] = tested on: Escherichia coli C1/Col E1::Tn3; experiment: bacteriostatic action in vitro by the dilution method (MIC); type: cell-based; details: read-out: minimum inhibitory concentrations (MIC)
Description: (§1) The bacteriostatic action was determined in vitro by the dilution method. The study was carried out on both Gram-positive strains and Gram-negative strains.
(§2) The results for various products according to the invention, expressed as minimum inhibitory concentrations (MIC - μg/ml), are collated in Table 3.

[4] = tested on: Escherichia coli SOL RL 90; experiment: as above; type: cell-based; details: SOLRL90, read-out: minimum inhibitory concentrations (MIC)
Description: as §1, §2

[5] = tested on: Pseudomonas aeruginosa NCTC 8203; experiment: as above; type: cell-based; details: NCTC8203, read-out: minimum inhibitory concentrations (MIC)
Description: as §1, §2

Providencia 155 = experiment: as above; type: cell-based; details: read-out: minimum inhibitory concentrations (MIC)
Description: as §1, §2

Staph. aureus Smith = experiment: as above; type: cell-based; details: Staphylococcus aureus, read-out: minimum inhibitory concentrations (MIC)
Description: as §1, §2

[6] = tested on: Proteus vulgaris GN 76/C-1; experiment: as above; type: cell-based; details: GN76, read-out: minimum inhibitory concentrations (MIC)
Description: as §1, §2

[7] = tested on: Klebsiella pneumoniae R30; experiment: as above; type: cell-based; details: read-out: minimum inhibitory concentrations (MIC)
Description: as §1, §2

[8] = plasma, 20 mg/kg (Table 6), read-out: Plasma concentration at 6 h
[9] = plasma, 360 minutes, read-out: plasma concentration

Compound | Tmax ([1]; plasma, 20 mg/kg (Table 6)) [h] | Cmax ([1]; plasma, 20 mg/kg (Table 6)) [µg/mL] | AUC(0-t) at 6 h ([1]; plasma, 20 mg/kg (Table 6)) [µg·h/mL] | concentration at 6 h [1, 8] [µg/mL] | concentration at 10 min ([1]; plasma) [µg/mL] | concentration at 0.5 h ([1]; plasma) [µg/mL] | concentration at 0.75 h ([1]; plasma) [µg/mL] | concentration at 1 h ([1]; plasma) [µg/mL] | concentration at 1.5 h ([1]; plasma) [µg/mL] | concentration at 2 h ([1]; plasma) [µg/mL] | concentration at 3 h ([1]; plasma) [µg/mL] | concentration at 4 h ([1]; plasma) [µg/mL] | concentration at 5 h ([1]; plasma) [µg/mL] | concentration at 6 h [1, 9] [µg/mL] | dose excreted at 6 h [1] [%] | fraction unbound [2] | MIC [3] [mg/L] | MIC [4] [mg/L] | MIC [5] [mg/L] | MIC (Providencia 155) [mg/L] | further results
CC(C)(O/N=C(\C(=O)NC1C(=O)N2C(C(=O)O)=C(COC(=O)c3ccc(NC(=O)CN)c(O)c3)CSC12)c1csc(N)n1)C(=O)O (stereo not drawn) [SR 43753, Bis-trifluoroacetate of 7-2-(2-aminothiazol-4-yl)-2-(2-carboxyprop-2-yloxyimino)acetamido]-3-[[4-(2-aminoacetyl)amino-3-hydroxybenzoyloxymethyl]-3-cephem-4-carboxylic acid, syn isomer] | 2 | 151 | 703 | 80.9 | 36.8 | 95.2 | 129 | 139 | 146 | 151 | 126 | 121 | 113 | 80.9 | 18 | 0.16 | 0.12 (≈ 0.177 µM) | 2 (≈ 2.95 µM) | 2 (≈ 2.95 µM) | 1 (≈ 1.48 µM) | concentration at 20 min ([1]; plasma): 69.1 µg/mL; concentration at 5.5 h ([1]; plasma): 97.6 µg/mL; MIC (Staph. aureus Smith): 2 mg/L (≈ 2.95 µM); MIC [6]: 0.12 mg/L (≈ 0.177 µM); MIC [7]: 1 mg/L (≈ 1.48 µM)
CC(C)(O/N=C(\C(=O)NC1C(=O)N2C(C(=O)O)=C(COC(=O)c3ccc(NC(=O)CCN)c(O)c3)CSC12)c1csc(N)n1)C(=O)O (stereo not drawn) [SR 43904] | 1.5 | 94.1 | 348 | 34.3 | 12.6 | 52.4 | 73 | 76.1 | 94.1 | 76.1 | 59.7 | 57.3 | 53.4 | 34.3 | 17 | 0.29 | 0.25 (≈ 0.361 µM) | 2 (≈ 2.89 µM) | 1 (≈ 1.45 µM) | 1 (≈ 1.45 µM) | half-life ([1]; plasma, 20 mg/kg (Table 6), read-out: t1/2 β): 4.42 h; concentration at 5.5 h ([1]; plasma): 39.9 µg/mL; MIC (Staph. aureus Smith): 4 mg/L (≈ 5.78 µM); MIC [6]: 0.25 mg/L (≈ 0.361 µM); MIC [7]: 1 mg/L (≈ 1.45 µM)
CC(C)(O/N=C(\C(=O)NC1C(=O)N2C(C(=O)O)=C(COC(=O)c3ccc(NC(=O)[C@@H](N)CCCN)c(O)c3)CSC12)c1csc(N)n1)C(=O)O (stereo partly drawn) [SR 44128] | 2 | 195 | 898 | 104 | 62.9 | 135 | 177 | 188 | 188 | 195 | 169 | 142 | 123 | 105 | 72 | 0.16 | 0.12 (≈ 0.163 µM) | 2 (≈ 2.72 µM) | 2 (≈ 2.72 µM) | 1 (≈ 1.36 µM) | concentration at 20 min ([1]; plasma): 115 µg/mL; MIC (Staph. aureus Smith): 8 mg/L (≈ 10.9 µM); MIC [6]: 0.12 mg/L (≈ 0.163 µM); MIC [7]: 1 mg/L (≈ 1.36 µM)
CC(C)(O/N=C(\C(=O)NC1C(=O)N2C(C(=O)O)=C(COC(=O)c3ccc(NC(=O)C(N)CCN)c(O)c3)CSC12)c1csc(N)n1)C(=O)O (stereo not drawn) [SR 44130] | 1.5 | 143 | 707 | 90.4 | 39.1 | 81.9 | 105 | 122 | 143 | 142 | 138 | 135 | 109 | 90.4 | 37 | 0.08 | 0.25 (≈ 0.347 µM) | 2 (≈ 2.77 µM) | 2 (≈ 2.77 µM) | 1 (≈ 1.39 µM) | concentration at 20 min ([1]; plasma): 60.9 µg/mL; concentration at 5.5 h ([1]; plasma): 93.8 µg/mL; MIC (Staph. aureus Smith): 8 mg/L (≈ 11.1 µM); MIC [6]: 0.12 mg/L (≈ 0.166 µM); MIC [7]: 1 mg/L (≈ 1.39 µM)
